For test [1], the target named is T1, rat NMBR (Rattus norvegicus, UniProt P24053).
T1 sequence (P24053 1-390): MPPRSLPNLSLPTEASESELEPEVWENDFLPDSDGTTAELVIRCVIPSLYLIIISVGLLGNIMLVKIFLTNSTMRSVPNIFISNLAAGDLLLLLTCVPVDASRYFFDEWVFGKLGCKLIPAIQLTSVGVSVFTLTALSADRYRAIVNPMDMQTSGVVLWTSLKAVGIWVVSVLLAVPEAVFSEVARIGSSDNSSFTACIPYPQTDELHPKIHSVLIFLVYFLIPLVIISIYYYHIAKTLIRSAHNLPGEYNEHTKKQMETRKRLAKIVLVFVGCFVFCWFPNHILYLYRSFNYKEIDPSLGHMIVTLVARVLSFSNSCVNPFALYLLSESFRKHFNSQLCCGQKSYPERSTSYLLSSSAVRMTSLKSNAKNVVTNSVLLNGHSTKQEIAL
As to the kind of experiment: [3H]Inositol phosphate generation, rNMBR/BALB cells. The class given is cell-based.

The target of test [2] is T2, mouse NMBR (Mus musculus, UniProt O54799).
T2 sequence (O54799 1-390): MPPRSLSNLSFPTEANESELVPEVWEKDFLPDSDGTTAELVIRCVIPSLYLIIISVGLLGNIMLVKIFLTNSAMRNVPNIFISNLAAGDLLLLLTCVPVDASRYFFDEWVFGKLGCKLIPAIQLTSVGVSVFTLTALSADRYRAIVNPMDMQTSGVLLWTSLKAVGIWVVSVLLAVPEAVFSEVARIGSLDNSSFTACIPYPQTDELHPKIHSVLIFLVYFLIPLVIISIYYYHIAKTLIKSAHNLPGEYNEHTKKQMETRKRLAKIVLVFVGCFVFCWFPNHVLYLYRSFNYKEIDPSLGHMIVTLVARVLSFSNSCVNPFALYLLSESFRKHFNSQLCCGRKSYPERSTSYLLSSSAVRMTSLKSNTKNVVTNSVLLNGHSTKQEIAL
As to the kind of experiment: Binding studies, mNMBR/BALB cells.

For test [3], the target named is T3, human GRPR (Homo sapiens, UniProt P30550). As to the kind of experiment: Binding studies, hGRPR/BALB cells.
Test [4] concerns the target T1, rat NMBR. As to the kind of experiment: Binding studies, rNMBR/BALB cells.
The target in test [5] is T2, mouse NMBR. The test is described as follows: [3H]Inositol phosphate generation, mNMBR/BALB cells. In kind it is cell-based.
For test [6], the target named is T4, rat BRS-3 (Rattus norvegicus, UniProt Q8K418).
T4 sequence (Q8K418 1-399): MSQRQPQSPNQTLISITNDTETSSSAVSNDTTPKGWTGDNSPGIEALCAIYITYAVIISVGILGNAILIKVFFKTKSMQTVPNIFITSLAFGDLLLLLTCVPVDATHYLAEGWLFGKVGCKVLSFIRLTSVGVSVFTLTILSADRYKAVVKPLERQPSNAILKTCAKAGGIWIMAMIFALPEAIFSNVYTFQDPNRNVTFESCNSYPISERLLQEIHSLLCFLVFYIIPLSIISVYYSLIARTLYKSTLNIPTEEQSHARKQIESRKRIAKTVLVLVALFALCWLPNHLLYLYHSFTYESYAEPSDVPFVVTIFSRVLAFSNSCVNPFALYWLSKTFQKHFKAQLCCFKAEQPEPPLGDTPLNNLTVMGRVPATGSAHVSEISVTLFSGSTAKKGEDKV
The test is described as follows: [3H]Inositol phosphate generation, rBRS-3/BALB cells. The class given is cell-based.

For test [7], the target named is T5, human NMBR (Homo sapiens, UniProt P28336). As to the kind of experiment: [3H]Inositol phosphate generation, hNMBR/BALB cells. The class given is cell-based.
Test [8] has as its target T5, human NMBR. As to the kind of experiment: Binding studies, hNMBR/BALB cells.
In test [9] the target is T6, human BRS-3 (Homo sapiens, UniProt P32247).
T6 sequence (P32247 1-399): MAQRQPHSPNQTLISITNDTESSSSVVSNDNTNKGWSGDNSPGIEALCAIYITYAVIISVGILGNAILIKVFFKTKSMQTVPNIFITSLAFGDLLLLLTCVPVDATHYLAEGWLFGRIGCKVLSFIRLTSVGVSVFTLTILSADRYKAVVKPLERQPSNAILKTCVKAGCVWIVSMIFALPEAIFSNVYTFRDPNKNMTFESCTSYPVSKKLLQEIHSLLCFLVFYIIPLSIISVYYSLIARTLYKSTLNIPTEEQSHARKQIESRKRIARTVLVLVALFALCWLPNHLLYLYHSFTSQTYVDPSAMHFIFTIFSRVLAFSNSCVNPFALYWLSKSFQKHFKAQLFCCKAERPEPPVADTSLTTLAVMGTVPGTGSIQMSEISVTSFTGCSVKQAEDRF
The test is described as follows: Binding studies, inhibition of 125I-[D-Tyr6,β-Ala11,Phe13,Nle14]Bn-.

Test [10] concerns the target T7, mouse GRPR (Mus musculus, UniProt P21729). As to the kind of experiment: [3H]Inositol phosphate generation, mGRPR/BALB cells. In kind it is cell-based.
Test [11] deals with T3, human GRPR. As to the kind of experiment: [3H]Inositol phosphate generation, hGRPR/BALB cells. In kind it is cell-based.
Test [12] concerns the target T8, mouse BRS-3 (Mus musculus, UniProt O54798).
T8 sequence (O54798 1-399): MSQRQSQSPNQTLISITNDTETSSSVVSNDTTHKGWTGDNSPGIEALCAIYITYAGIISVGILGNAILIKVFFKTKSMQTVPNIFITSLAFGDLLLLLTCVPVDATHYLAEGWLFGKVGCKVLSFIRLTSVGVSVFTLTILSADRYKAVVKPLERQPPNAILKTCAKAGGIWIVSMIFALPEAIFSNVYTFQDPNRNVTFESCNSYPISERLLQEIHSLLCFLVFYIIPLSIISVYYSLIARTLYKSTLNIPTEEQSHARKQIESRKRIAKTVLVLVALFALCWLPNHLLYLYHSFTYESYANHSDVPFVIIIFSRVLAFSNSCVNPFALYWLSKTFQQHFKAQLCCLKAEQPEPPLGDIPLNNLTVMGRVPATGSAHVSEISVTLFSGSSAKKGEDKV
The test is described as follows: [3H]Inositol phosphate generation, mBRS-3/BALB cells. The class given is cell-based.

Test [13] addresses T7, mouse GRPR. As to the kind of experiment: Binding studies, mGRPR/BALB cells.
Test [14] addresses T9, rat GRPR (Rattus norvegicus, UniProt P52500). The test is described as follows: [3H]Inositol phosphate generation, rGRPR/AR42J cells. In kind it is cell-based.
Test [15] deals with T9, rat GRPR. The test is described as follows: Binding studies, rGRPR/AR42J cells.
Test [16] has as its target T6, human BRS-3. The test is described as follows: [3H]Inositol phosphate generation. The class given is cell-based.

Structures are written as SMILES. Where “and” joins values, the source holds several entries; their conditions need not be identical. Equal values may be shown once. Entries after “also recorded” stand apart in the source; their conditions may differ. Read-outs that look alike come from different tables or passages of the source.

T3 sequence (P30550 whole entry): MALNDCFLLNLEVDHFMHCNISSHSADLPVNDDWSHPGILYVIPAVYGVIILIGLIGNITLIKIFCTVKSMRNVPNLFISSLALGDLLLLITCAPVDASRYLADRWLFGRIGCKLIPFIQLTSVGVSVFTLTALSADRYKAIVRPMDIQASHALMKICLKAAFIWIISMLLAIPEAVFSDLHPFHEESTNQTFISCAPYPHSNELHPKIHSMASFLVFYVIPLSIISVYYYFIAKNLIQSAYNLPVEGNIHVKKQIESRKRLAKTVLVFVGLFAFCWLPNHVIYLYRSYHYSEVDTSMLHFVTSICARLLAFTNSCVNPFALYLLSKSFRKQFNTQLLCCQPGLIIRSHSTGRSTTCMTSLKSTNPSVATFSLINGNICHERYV
T5 sequence (P28336 whole entry): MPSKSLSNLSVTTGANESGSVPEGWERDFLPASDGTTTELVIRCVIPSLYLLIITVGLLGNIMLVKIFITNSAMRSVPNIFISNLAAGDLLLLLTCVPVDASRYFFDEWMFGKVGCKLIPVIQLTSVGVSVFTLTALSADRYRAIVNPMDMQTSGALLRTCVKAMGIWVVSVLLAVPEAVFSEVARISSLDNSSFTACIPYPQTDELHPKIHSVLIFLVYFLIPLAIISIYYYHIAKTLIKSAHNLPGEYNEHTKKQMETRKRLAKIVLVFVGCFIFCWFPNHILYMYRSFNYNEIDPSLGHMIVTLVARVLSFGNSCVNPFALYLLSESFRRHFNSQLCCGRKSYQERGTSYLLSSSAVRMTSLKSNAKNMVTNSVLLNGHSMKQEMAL
T7 sequence (P21729 whole entry): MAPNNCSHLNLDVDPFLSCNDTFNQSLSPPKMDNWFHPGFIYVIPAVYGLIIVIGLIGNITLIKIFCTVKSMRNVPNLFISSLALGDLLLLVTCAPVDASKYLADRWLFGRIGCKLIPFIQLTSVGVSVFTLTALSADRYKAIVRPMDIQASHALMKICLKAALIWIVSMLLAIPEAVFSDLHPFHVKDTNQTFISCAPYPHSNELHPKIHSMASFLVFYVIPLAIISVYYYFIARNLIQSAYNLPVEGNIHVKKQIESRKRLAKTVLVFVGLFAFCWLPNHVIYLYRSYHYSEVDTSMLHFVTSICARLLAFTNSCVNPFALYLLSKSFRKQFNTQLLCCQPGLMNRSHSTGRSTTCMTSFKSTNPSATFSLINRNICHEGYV
T9 sequence (P52500 whole entry): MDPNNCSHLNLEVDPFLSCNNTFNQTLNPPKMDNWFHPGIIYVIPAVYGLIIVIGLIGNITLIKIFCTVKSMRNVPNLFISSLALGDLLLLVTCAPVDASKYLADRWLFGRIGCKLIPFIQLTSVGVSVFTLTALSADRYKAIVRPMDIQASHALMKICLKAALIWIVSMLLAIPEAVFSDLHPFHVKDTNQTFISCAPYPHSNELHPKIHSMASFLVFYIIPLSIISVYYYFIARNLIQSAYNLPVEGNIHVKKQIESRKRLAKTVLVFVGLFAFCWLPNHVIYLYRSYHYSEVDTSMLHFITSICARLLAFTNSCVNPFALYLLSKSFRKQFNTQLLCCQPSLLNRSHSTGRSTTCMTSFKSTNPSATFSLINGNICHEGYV

With `O[C@@](Cc1nc(CC2(C(F)(F)F)CC2)c[nH]1)(c1ccc(-n2cccn2)cc1)C(F)(F)F` [MK-5046, (2S)-1,1,1-trifluoro-2-[4-(1H-pyrazol-1-yl)phenyl]-3-(4-[[1-(trifluoromethyl)cyclopropyl]methyl]-1H-imidazol-2-yl)propan-2-ol], the EC50 (as a rule, the concentration at which the effect is half-maximal) in test [1] was over 3000 nM; in test [5] it was over 3000 nM; in [6] it was 0.23 ± 0.08 nM; in [7], over 3000 nM; in test [10], over 3000 nM; in [11], over 3000 nM. For the same compound, the EC50 was 5.24 ± 0.36 nM in [12], over 3000 nM in [14] and 8.7 ± 0.47 nM in [16]. In addition, the IC50 (in general, the concentration at which inhibition is half-maximal) is over 3000 nM in test [2]; over 3000 nM in [3]; over 3000 nM in test [4]; over 3000 nM in test [8]; 102 ± 2 nM in test [9]; over 3000 nM in [13]. In addition, the IC50 in test [15] was over 3000 nM. In addition, the “maximal stimulation of [3H]IP” value in [6] (rBRS-3/BALB cells, 1 μM, n=7) is on record as 21,812 ± 1,721 dpm; in [12] (mBRS-3/BALB cells, 1 μM, n=3), 62,992 ± 9,298 dpm. Besides, the “more potent in rBRS-3 than in hBRS-3” value in test [6] (rBRS-3 versus hBRS-3) came out at 38 fold. Moreover, the “more potent in rBRS-3 than in mBRS-3” value in test [6] (rBRS-3 versus mBRS-3) amounted to 22 fold. The “efficacy for activating PLC” value in test [6] (rat BRS-3 cells), in [12] (mouse BRS-3 cells) and in [16] (human BRS-3 cells) was “full efficacious; also recorded: fully efficacious” in each case. The “increase on activating PLC” value in test [6] (rat BRS-3 containing cells) was 5.8 fold; in [12] (mouse BRS-3 containing cells), 3.9 fold; in [16] (human BRS-3 containing cells) it was 3.8 fold. Also, in test [16] (binding IC50 over [3H]IP EC50, hBRS-3/BALB cells, measure of receptor spareness), the “IC50/ EC50 hBRS-3/BALB” value is 11.7 and 11.72. Further, the “maximal stimulated [3H]IP value” in [16] (hBRS-3/BALB cells, 1 μM, n=13) is reported as 70,268 ± 4,912 dpm.

Take `CSCC[C@H](NC(=O)[C@H](Cc1ccccc1)NC(=O)[C@H](Cc1c[nH]cn1)NC(=O)CNC(=O)[C@@H](NC(=O)[C@H](C)NC(=O)[C@H](Cc1c[nH]c2ccccc12)NC(=O)[C@H](CC(C)C)NC(=O)[C@H](CC(N)=O)NC(=O)CN)[C@@H](C)O)C(N)=O` [NMB, neuromedin B]: the EC50 is 1.6 nM and 1.59 nM in [1] (EC50 Rat NMBR rNMBR/BALB, [3H]IP production, 60 min, 37°C); 4.7 nM and 4.73 nM in test [5] (EC50 Mouse NMBR mNMBR/BALB, [3H]IP production, 60 min, 37°C); over 3000 nM in test [6]; 2.5 nM and 2.52 nM in [7] (EC50 Human NMBR hNMBR/BALB, [3H]IP production, 60 min, 37°C); 23 ± 8 nM in test [10]; 530 ± 23 nM in test [11]. In addition, the EC50 in test [12] is over 3000 nM; in test [14] (EC50 Rat GRPR rGRPR/AR42J, [3H]IP production, 60 min, 37°C), 17 nM; in [16] it was over 3000 nM. The IC50 in test [2] is 0.6 ± 0.02 nM; in test [3], 31.5 ± 2.4 nM; in test [4], 1.21 ± 0.15 nM; in test [8], 0.6 ± 0.02 nM; in test [9], over 3000 nM; in test [13] it was 170 ± 5 nM. For the same compound, the IC50 in test [15] was 80 ± 5 nM. Moreover, in test [15] (rat receptors), the “lower affinity for rGRPR than for rNMBR” value amounted to 66 fold.

Values taken from publication PMC5461819 (Peptides, 2015).
